Results as given in ChEMBL document CHEMBL1759965, “Synthesis and pharmacological evaluation of bivalent antagonists of the nociceptin opioid receptor” (Eur J Med Chem, 2011).
Active and inactive are the calls of the source. The rule behind the calls is not given here.

How the values were obtained:
[1] = target: Delta-type opioid receptor (Homo sapiens) (UniProt P41143); experiment: Displacement of [3H]-naltrindole from human delta opioid receptor expressed in human HEK293 cells after 2 hrs by scintillation counting; assay type: cell-based
Nociceptin receptor [2] = target: T1, Nociceptin receptor (Homo sapiens, UniProt P41146); experiment: Antagonist activity at human NOP receptor expressed in human HEK293 cells assessed as inhibition of GTPgammaS binding in presence of 300 nM GDP relative to control; assay type: functional, cell-based
Nociceptin receptor [3] = target: T1, Nociceptin receptor; experiment: Displacement of [125I]Tyr14-nociceptin from human NOP receptor expressed in human HEK293 cells after 90 mins by scintillation counting
Mu-type opioid receptor = Mu-type opioid receptor (Homo sapiens, UniProt P35372); experiment: Displacement of [3H]-naltrindole from human mu opioid receptor expressed in CHO cells after 2 hrs by scintillation counting; assay type: cell-based
Homo sapiens [4] = species on record: Homo sapiens; experiment: Selectivity ratio of IC50 for human kappa opioid receptor to IC50 for human NOP receptor
Homo sapiens [5] = species on record: Homo sapiens; experiment: Selectivity ratio of IC50 for human mu opioid receptor to IC50 for human NOP receptor
[6] = target: Kappa-type opioid receptor (Homo sapiens, UniProt P41145); experiment: Displacement of [3H]-diprenorphine from human kappa opioid receptor expressed in human HEK293 cells after 2 hrs by scintillation counting
Chain of Kappa-type opioid receptor (P41145 whole entry): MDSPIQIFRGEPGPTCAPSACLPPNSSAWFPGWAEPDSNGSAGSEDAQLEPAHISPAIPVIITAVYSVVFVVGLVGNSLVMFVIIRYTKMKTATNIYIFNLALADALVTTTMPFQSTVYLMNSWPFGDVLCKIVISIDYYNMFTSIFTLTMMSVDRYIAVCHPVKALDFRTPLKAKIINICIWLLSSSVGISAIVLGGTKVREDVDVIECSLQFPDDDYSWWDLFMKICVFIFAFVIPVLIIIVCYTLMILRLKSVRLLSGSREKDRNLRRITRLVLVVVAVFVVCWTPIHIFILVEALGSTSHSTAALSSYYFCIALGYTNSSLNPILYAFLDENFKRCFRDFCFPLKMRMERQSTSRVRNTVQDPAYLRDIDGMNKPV

T1 sequence (P41146 whole entry): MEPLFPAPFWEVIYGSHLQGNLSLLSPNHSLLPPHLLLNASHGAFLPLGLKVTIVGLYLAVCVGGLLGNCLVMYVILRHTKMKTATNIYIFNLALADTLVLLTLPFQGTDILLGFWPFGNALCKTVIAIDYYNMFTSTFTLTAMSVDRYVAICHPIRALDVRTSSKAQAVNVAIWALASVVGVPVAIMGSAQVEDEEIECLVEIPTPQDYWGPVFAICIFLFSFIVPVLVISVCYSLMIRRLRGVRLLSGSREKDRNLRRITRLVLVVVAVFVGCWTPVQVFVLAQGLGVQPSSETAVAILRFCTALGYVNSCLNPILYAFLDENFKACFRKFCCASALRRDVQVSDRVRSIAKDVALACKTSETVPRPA
Chain of Delta-type opioid receptor (Homo sapiens) (P41143 whole entry): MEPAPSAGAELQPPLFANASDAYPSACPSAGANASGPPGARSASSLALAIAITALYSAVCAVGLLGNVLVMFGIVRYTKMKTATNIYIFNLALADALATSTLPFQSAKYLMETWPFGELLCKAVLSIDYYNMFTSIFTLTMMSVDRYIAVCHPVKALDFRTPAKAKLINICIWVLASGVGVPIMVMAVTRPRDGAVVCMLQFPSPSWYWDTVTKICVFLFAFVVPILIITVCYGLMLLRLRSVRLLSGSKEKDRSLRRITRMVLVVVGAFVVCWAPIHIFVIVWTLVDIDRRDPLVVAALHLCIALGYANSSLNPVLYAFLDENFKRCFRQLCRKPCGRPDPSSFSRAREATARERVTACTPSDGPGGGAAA
Chain of Mu-type opioid receptor (P35372 whole entry): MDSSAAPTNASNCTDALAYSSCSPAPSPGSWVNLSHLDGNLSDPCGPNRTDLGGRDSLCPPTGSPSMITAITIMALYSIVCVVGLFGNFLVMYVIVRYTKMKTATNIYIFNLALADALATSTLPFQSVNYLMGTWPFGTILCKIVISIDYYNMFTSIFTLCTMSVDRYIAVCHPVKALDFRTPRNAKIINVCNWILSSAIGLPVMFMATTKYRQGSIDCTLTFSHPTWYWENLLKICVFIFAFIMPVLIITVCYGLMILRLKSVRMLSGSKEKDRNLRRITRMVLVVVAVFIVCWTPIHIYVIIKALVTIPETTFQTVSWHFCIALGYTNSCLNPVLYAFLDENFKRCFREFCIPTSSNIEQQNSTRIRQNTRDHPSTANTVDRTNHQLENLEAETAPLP

Row | SMILES | Activity [1] | Activity (Nociceptin receptor [2]) | IC50 (Nociceptin receptor [3]) [nM] | IC50 (Mu-type opioid receptor) [nM] | Ratio IC50 (Homo sapiens [4]) | Ratio IC50 (Homo sapiens [5]) | IC50 [6] [nM]
1 | Cc1cc(N)c2cc(NC(=O)c3ccccc3COc3ccc(/C=N/CCCCCC/N=C/c4ccc(OCc5ccccc5C(=O)Nc5ccc6nc(C)cc(N)c6c5)cc4)cc3)ccc2n1 | inactive | Active | 83.3 |  |  |  | 
2 | Cc1cc(N)c2cc(NC(=O)c3ccccc3COc3ccc(/C=N/CCCCCCC/N=C/c4ccc(OCc5ccccc5C(=O)Nc5ccc6nc(C)cc(N)c6c5)cc4)cc3)ccc2n1 | inactive | Active | 63.1 |  |  |  | 
3 | CCCCC/N=C/c1ccc(OCc2ccccc2C(=O)Nc2ccc3nc(C)cc(N)c3c2)cc1 | inactive | Active | 186 |  |  |  | 
4 | Cc1cc(N)c2cc(NC(=O)c3ccccc3COc3ccc(CNCCCN)cc3)ccc2n1 | inactive | Active | 160 | 1400 | 14 | 12 | 1650
5 | Cc1cc(N)c2cc(NC(=O)c3ccccc3COc3ccc(CNCCCCCCCNCc4ccc(OCc5ccccc5C(=O)Nc5ccc6nc(C)cc(N)c6c5)cc4)cc3)ccc2n1 | inactive | Active | 30.1 | 1040 | 33 | 34 | 1020
6 | Cc1cc(N)c2cc(NC(=O)c3ccccc3COc3ccc(CNCCCCCN)cc3)ccc2n1 | inactive | Active | 207 | 4880 | 18 | 41 | 2150
7 | Cc1cc(N)c2cc(NC(=O)c3ccccc3COc3ccc(/C=N/CCC/N=C/c4ccc(OCc5ccccc5C(=O)Nc5ccc6nc(C)cc(N)c6c5)cc4)cc3)ccc2n1 | inactive | Active | 48 |  |  |  | 
8 | CCCCCCCC/N=C/c1ccc(OCc2ccccc2C(=O)Nc2ccc3nc(C)cc(N)c3c2)cc1 | inactive | Active | 147 |  |  |  | 
9 | Cc1cc(N)c2cc(NC(=O)c3ccccc3COc3ccc(CNCCCCCCCCNCc4ccc(OCc5ccccc5C(=O)Nc5ccc6nc(C)cc(N)c6c5)cc4)cc3)ccc2n1 | inactive | Active | 31.6 | 1900 | 37 | 56 | 1270
10 | Cc1cc(N)c2cc(NC(=O)c3ccccc3COc3ccc(CNCCCCCCCN)cc3)ccc2n1 | inactive | Active | 246 | 9980 | 5.7 | 57 | 998
11 | CCCCCCC/N=C/c1ccc(OCc2ccccc2C(=O)Nc2ccc3nc(C)cc(N)c3c2)cc1 | inactive | Active | 142 |  |  |  | 
12 | Cc1cc(N)c2cc(NC(=O)c3ccccc3COc3ccc(C=O)cc3)ccc2n1 | inactive | Active | 207 |  |  |  | 
13 | CCCNCc1ccc(OCc2ccccc2C(=O)Nc2ccc3nc(C)cc(N)c3c2)cc1 | inactive | Active | 83 | 3350 | 45 | 49 | 3080
14 | Cc1cc(N)c2cc(NC(=O)c3ccccc3COc3ccc(CNCCCCCCCCCCNCc4ccc(OCc5ccccc5C(=O)Nc5ccc6nc(C)cc(N)c6c5)cc4)cc3)ccc2n1 | inactive | Active | 32.7 | 1320 | 31 | 45 | 900
15 | CCCCCCCCNCc1ccc(OCc2ccccc2C(=O)Nc2ccc3nc(C)cc(N)c3c2)cc1 | inactive | Active | 483 | 4340 | 15 | 13 | 4950
16 | Cc1cc(N)c2cc(NC(=O)c3ccccc3COc3ccc(CNCCCCCCCCCNCc4ccc(OCc5ccccc5C(=O)Nc5ccc6nc(C)cc(N)c6c5)cc4)cc3)ccc2n1 | inactive | Active | 28.1 | 1160 | 36 | 40 | 1050
17 | CCc1ccc(OCc2ccccc2C(=O)Nc2ccc3nc(C)cc(N)c3c2)cc1 | inactive | Active | 30 | 1510 | 250 | 50 | 7510
18 | CCCCCCCCCNCc1ccc(OCc2ccccc2C(=O)Nc2ccc3nc(C)cc(N)c3c2)cc1 | inactive | Active | 305 | 2170 | 13 | 11 | 2560
19 | CCCCNCc1ccc(OCc2ccccc2C(=O)Nc2ccc3nc(C)cc(N)c3c2)cc1 | inactive | Active | 1120 | 5110 | 10 | 8.6 | 5920
20 | Cc1cc(N)c2cc(NC(=O)c3ccccc3COc3ccc(/C=N/CCCC/N=C/c4ccc(OCc5ccccc5C(=O)Nc5ccc6nc(C)cc(N)c6c5)cc4)cc3)ccc2n1 | inactive | Active | 35.6 |  |  |  | 
21 | Cc1cc(N)c2cc(NC(=O)c3ccccc3COc3ccc(/C=N/CCCCC/N=C/c4ccc(OCc5ccccc5C(=O)Nc5ccc6nc(C)cc(N)c6c5)cc4)cc3)ccc2n1 | inactive | Active | 50.9 |  |  |  | 
22 | Cc1cc(N)c2cc(NC(=O)c3ccccc3COc3ccc(/C=N/CCCCCCCCCC/N=C/c4ccc(OCc5ccccc5C(=O)Nc5ccc6nc(C)cc(N)c6c5)cc4)cc3)ccc2n1 | inactive | Active | 82.1 |  |  |  | 
23 | CCCCCCCCCC/N=C/c1ccc(OCc2ccccc2C(=O)Nc2ccc3nc(C)cc(N)c3c2)cc1 | inactive | Active | 184 |  |  |  | 
24 | CCCCCCCCC/N=C/c1ccc(OCc2ccccc2C(=O)Nc2ccc3nc(C)cc(N)c3c2)cc1 | inactive | Active | 154 |  |  |  | 
25 | CCCCCC/N=C/c1ccc(OCc2ccccc2C(=O)Nc2ccc3nc(C)cc(N)c3c2)cc1 | inactive | Active | 209 |  |  |  | 
26 | CCC/N=C/c1ccc(OCc2ccccc2C(=O)Nc2ccc3nc(C)cc(N)c3c2)cc1 | inactive | Active | 98.9 |  |  |  | 
27 | Cc1cc(N)c2cc(NC(=O)c3ccccc3COc3ccc(/C=N/CCCCCCCC/N=C/c4ccc(OCc5ccccc5C(=O)Nc5ccc6nc(C)cc(N)c6c5)cc4)cc3)ccc2n1 | inactive | Active | 114 |  |  |  | 
28 | Cc1cc(N)c2cc(NC(=O)c3ccccc3COc3ccc(CN)cc3)ccc2n1 | inactive | Active | 116 |  |  |  | 
29 | Cc1cc(N)c2cc(NC(=O)c3ccccc3COc3ccc(/C=N/CCCCCCCCC/N=C/c4ccc(OCc5ccccc5C(=O)Nc5ccc6nc(C)cc(N)c6c5)cc4)cc3)ccc2n1 | inactive | Active | 82.7 |  |  |  | 
30 | CCCC/N=C/c1ccc(OCc2ccccc2C(=O)Nc2ccc3nc(C)cc(N)c3c2)cc1 | inactive | Active | 309 |  |  |  | 
